Molecules are shown by their SMILES.

The series can be described thus: RP, Waters ACQUITY UPLC BEH C18, 100 × 2.1 mm, 1.7 µm, 0.3 mL/min, estimated dead time 0.73 min; A: water + 0.1% formic acid, pH 3; B: methanol + 0.1% formic acid, pH 3; gradient (min/%B) 0/10 14/90 16/90 18/10. The following applies: stereoisomer not certain.
On to `CON=C(C(=O)NC1C(=O)N2C(C(=O)O)=C(COC(N)=O)CSC12)c1ccco1` (stereo unspecified) [Cefuroxime], for which the LC retention time is 9.51 min.

For the compound `Cc1cc(C2CC2)nc(Nc2ccccc2)n1` [Cyprodinil], the LC retention time was 10.7 min.

`CCOP(=S)(OCC)Oc1cnc2ccccc2n1` [Quinalphos]: the LC retention time was 11.3 min.

On to `CCCC(=NOCC)C1=C(O)CC(C2CCCSC2)CC1=O` (stereo unspecified) [Cycloxydime], for which the LC retention time is 11.3 min.

Take `Cc1ccc(N(SC(F)(Cl)Cl)S(=O)(=O)N(C)C)cc1` [Tolyfluanid]: the LC retention time is 12.4 min.

In the case of `CC1(C)CON(Cc2ccccc2Cl)C1=O` [Clomazone], the LC retention time was 9.54 min.

As for `CCCCNC(=O)NS(=O)(=O)c1ccc(C)cc1` [Tolbutamide], the LC retention time was 8.33 min.

As to `COC(=O)C(C)N(C(=O)Cc1ccccc1)c1c(C)cccc1C` (stereo unspecified) [Benalaxyl], the LC retention time is 11.7 min.

Take `CCc1nn(C)c(C(=O)NCc2ccc(C(C)(C)C)cc2)c1Cl` [Tebufenpyrad]: the LC retention time is 13.2 min.

Take `CC(=O)OCC12CC(OC(=O)CC(C)C)C(C)=CC1OC1C(O)C(OC(C)=O)C2(C)C12CO2` (stereo unspecified) [T2 Toxin]: the LC retention time was 9.98 min.

As for `Cc1[nH]c(=O)n(C(C)(C)C)c(=O)c1Cl` [Terbacil], the LC retention time is 7.42 min.

For the compound `COCc1cnc(C2=NC(C)(C(C)C)C(=O)N2)c(C(=O)O)c1` (stereo unspecified) [Imazamox], the LC retention time is 3.21 min.

Take `O=C1CN(N=Cc2ccc([N+](=O)[O-])o2)C(=O)N1` [Nitrofurantoin]: the LC retention time was 2.83 min.

Consider `CC(COc1ccc(Oc2ccccc2)cc1)Oc1ccccn1` (stereo unspecified) [Pyriproxyfen], for which the LC retention time was 14 min.

Take `CC(C)c1cc(Oc2ccccc2)cc(C(C)C)c1NC(=S)NC(C)(C)C` [Diafenthiuron]: the LC retention time is 13.7 min.

As for `CCOC(=O)C1CC(=O)C(=C(O)C2CC2)C(=O)C1` (stereo unspecified) [Trinexapac-ethyl], the LC retention time was 7.6 min.

Turning to `CCCN(CCC)c1c([N+](=O)[O-])cc(S(N)(=O)=O)cc1[N+](=O)[O-]` [Oryzalin], the LC retention time is 11.1 min.

Take `O=C(Nc1ccc(F)cc1F)c1cccnc1Oc1cccc(C(F)(F)F)c1` [Diflufenican]: the LC retention time was 12.7 min.

As for `CC(Cc1ccc(C(C)(C)C)cc1)CN1CCCCC1` (stereo unspecified) [Fenpropidin], the LC retention time was 10 min.

In the case of `CCCCCCCCC=CC1CCC(=O)O1` (stereo unspecified) [japonilure], the LC retention time was 9.82 min.

`CCOC(=O)CC(SP(=S)(OC)OC)C(=O)OCC` (stereo unspecified) [Malathion]: the LC retention time was 11.6 min.

In the case of `CC(C)(C)NCC(O)c1cc(Cl)c(N)c(Cl)c1` (stereo unspecified) [Clenbuterol], the LC retention time was 5.15 min.

Regarding `CCCN(CC)CC1COC2(CCC(C(C)(C)C)CC2)O1` (stereo unspecified) [Spiroxamine], the LC retention time is 10 min.

Turning to `CCOP(=S)(OCC)ON=C(C#N)c1ccccc1` [Phoxim], the LC retention time is 11.9 min.

For `CCn1cc(C(=O)O)c(=O)c2cc(F)c(N3CCNCC3)cc21` [Norfloxacin], the LC retention time was 4.27 min.

With `COc1c(N2CC3CCCNC3C2)c(F)cc2c(=O)c(C(=O)O)cn(C3CC3)c12` (stereo unspecified) [Moxifloxacin], the LC retention time is 5.23 min.

Regarding `CNC(=O)C=C(C)OP(=O)(OC)OC` [Monocrotophos], the LC retention time is 3.57 min.

Regarding `O=C(NC(=O)c1c(F)cccc1F)Nc1cc(Cl)c(OC(F)(F)C(F)F)c(Cl)c1` [Hexaflumuron], the LC retention time is 12.6 min.

With `O=C(NC(=O)c1c(F)cccc1F)Nc1ccc(Oc2ccc(C(F)(F)F)cc2Cl)cc1F` [Flufenoxuron], the LC retention time is 13.5 min.

As for `N#CC(CCc1ccc(Cl)cc1)(Cn1cncn1)c1ccccc1` (stereo unspecified) [Fenbuconazole], the LC retention time was 11.1 min.

Regarding `CN(C)C1C(=O)C(C(N)=O)=C(O)C2(O)C(=O)C3=C(O)c4c(O)cccc4C(C)(O)C3C(O)C12` (stereo unspecified) [Oxytetracycline], the LC retention time was 3.94 min.
